Literature values as cited in patent US20080260691A1 (priority 2004, published 2008).

Legend:
[1] = all animal species exposed
[2] = not given; remark: listed apart in the source
[3] = in vivo

For N[C@@H](Cc1ccccc1)C(=O)O [Phe], the “in vitro hydrolysis t½ rat hepatic microsomes” value is listed as 30 min.

In the case of NC(=O)c1ncn([C@@H]2O[C@H](CO)[C@@H](O)[C@H]2O)n1 [ribavirin], the “teratogenic and/or embryocidal effects” value [1] is listed as “Significant teratogenic and/or embryocidal effects”, the “total bioavailability, average” value ([2]; averages) is listed as 64% and the multiple-dose half-life ([2]; multiple-dose) is listed as 12 days. For the same compound, the “portion of drug excreted in urine as intact drug or as metabolites” value ([2]; oral, within 72-80 hours) was “approx. 53%”, the “bioavailability (low and variable)” value ([2]; range) was 33-69% and the “portion of a single oral dose excreted in feces” value ([2]; single oral dose, within 72 hours) was “Approximately 15%”.

In the case of CC(C)[C@H](N)C(=O)OCCOCn1cnc2c(=O)[nH]c(N)nc21 [valacyclovir], the bioavailability [3] is listed as 54%.

For Nc1nc2c(ncn2COCCO)c(=O)[nH]1 [acyclovir], the bioavailability [3] is listed as 15-30%.

In the case of N[C@@H](Cc1ccc(O)cc1)C(=O)O [Tyr], the “in vitro hydrolysis t½ rat hepatic microsomes” value is listed as 5 min.

In the case of N[C@@H](CCC(=O)O)C(=O)O [Glu], the “in vitro hydrolysis t½ rat hepatic microsomes” value is given as 30 min.

In the case of NCCCC[C@H](N)C(=O)O [Lys], the “in vitro hydrolysis t½ rat hepatic microsomes” value is listed as 14 min.
